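Dose response: 5 concentrations. Exposure: 48 h. Format: 96-well plates. Endpoint: linear interpolation; highest concentration if not reached. The concentration for 50% growth inhibition is given as GI50.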 Active and inactive are the calls of the source. No stated cut-off is given here; in the data, active = GI50 up to about 1.1 µM and inactive = higher.
How the values were obtained:
Assay in all cases: NCI anticancer screen, dose series, 48 h
NCI-H23 = tested on: NCI-H23
SK-MEL-28 = tested on: SK-MEL-28
IGROV-1 = tested on: IGROV-1
RXF 393 = tested on: RXF 393
Malme-3M = tested on: Malme-3M
HL-60 = tested on: HL-60
TK-10 = tested on: TK-10
OVCAR-5 = tested on: OVCAR-5
SF-295 = tested on: SF-295
KM12 = tested on: KM12
COLO 205 = tested on: COLO 205
SF-268 = tested on: SF-268
UACC-62 = tested on: UACC-62
786-0 = tested on: 786-0
SW-620 = tested on: SW-620
SK-MEL-5 = tested on: SK-MEL-5
M14 = tested on: M14
HOP-62 = tested on: HOP-62
SR = tested on: SR

Measured: GI50

CN(CC(=O)O)S(=O)(=O)c1ccc(F)cc1
inactive: NCI-H23 > 100 µM | SK-MEL-28 > 100 µM | IGROV-1 > 100 µM | RXF 393 > 100 µM | Malme-3M > 100 µM | HL-60 > 100 µM | TK-10 > 100 µM | OVCAR-5 > 100 µM | SF-295 > 100 µM | KM12 > 100 µM | COLO 205 > 100 µM | SF-268 > 100 µM | UACC-62 > 100 µM | 786-0 > 100 µM | SW-620 > 100 µM | SK-MEL-5 > 100 µM | M14 > 100 µM

Cc1ccc(NC(=O)c2cccc([N+](=O)[O-])c2O)c([N+](=O)[O-])c1
inactive: NCI-H23 13.6 µM | SK-MEL-28 16.7 µM | IGROV-1 20.9 µM | RXF 393 11.3 µM | Malme-3M 14.9 µM | HL-60 25.9 µM | HOP-62 20.5 µM | OVCAR-5 20.2 µM | SF-295 15.1 µM | KM12 10.6 µM | COLO 205 19.9 µM | SF-268 17.9 µM | UACC-62 12 µM | 786-0 12.7 µM | SW-620 16.8 µM | M14 16.7 µM

CC(=O)N(CCN1C(=O)c2ccccc2C1=O)CCN1C(=O)c2ccccc2C1=O
inactive: NCI-H23 > 100 µM | SK-MEL-28 > 100 µM | RXF 393 > 100 µM | HL-60 > 100 µM | TK-10 > 100 µM | HOP-62 > 100 µM | SF-295 > 100 µM | KM12 > 100 µM | COLO 205 > 100 µM | SF-268 > 100 µM | UACC-62 > 100 µM | 786-0 > 100 µM | SW-620 > 100 µM | SK-MEL-5 > 100 µM | SR > 100 µM | M14 > 100 µM

C[n+]1cccc(NC(=O)c2ccc(NC(=O)C34CCC(C(=O)Nc5ccc(C(=O)Nc6ccc[n+](C)c6)cc5)(CC3)CC4)cc2)c1
inactive: NCI-H23 56.5 µM | SK-MEL-28 42.2 µM | IGROV-1 13.5 µM | RXF 393 22.1 µM | HL-60 1.87 µM | HOP-62 25.5 µM | OVCAR-5 > 100 µM | SF-295 19.7 µM | KM12 1.92 µM | COLO 205 > 10 µM | SF-268 16.4 µM | UACC-62 > 100 µM | 786-0 3.7 µM | SW-620 70.1 µM | SK-MEL-5 33.2 µM | SR 21.3 µM | M14 > 100 µM

COc1ccc(C2ON(c3ccccc3)CC=C2C)cc1 (configuration not stated)
inactive: NCI-H23 52.7 µM | SK-MEL-28 61.8 µM | IGROV-1 > 100 µM | RXF 393 34.4 µM | Malme-3M > 100 µM | HL-60 34.6 µM | TK-10 > 100 µM | HOP-62 > 100 µM | OVCAR-5 34 µM | SF-295 93.8 µM | KM12 99.1 µM | COLO 205 99.3 µM | SF-268 > 100 µM | UACC-62 87.1 µM | 786-0 > 100 µM | SW-620 > 100 µM | SR 37.2 µM | M14 80.7 µM

COCC(O)CN1C(N)=NC(O)C1O (configuration not stated)
inactive: NCI-H23 > 100 µM | SK-MEL-28 > 100 µM | RXF 393 > 100 µM | Malme-3M > 100 µM | HL-60 > 100 µM | TK-10 > 100 µM | HOP-62 > 100 µM | OVCAR-5 > 100 µM | SF-295 > 100 µM | KM12 > 100 µM | COLO 205 > 100 µM | SF-268 > 100 µM | 786-0 > 100 µM | SW-620 > 100 µM | SK-MEL-5 > 100 µM | SR > 100 µM | M14 > 100 µM

COc1ccc(-c2cc(=O)c3ccccc3o2)cc1N
inactive: NCI-H23 38.5 µM | SK-MEL-28 57.8 µM | IGROV-1 55.5 µM | RXF 393 23.6 µM | Malme-3M > 100 µM | HL-60 15.6 µM | TK-10 > 100 µM | HOP-62 20.5 µM | OVCAR-5 56 µM | SF-295 41.7 µM | KM12 29.3 µM | COLO 205 33.4 µM | SF-268 25.7 µM | UACC-62 25.8 µM | 786-0 > 100 µM | SW-620 38.4 µM | SK-MEL-5 25.8 µM | M14 27.1 µM

O/N=C(\c1nc2ccc(Cl)cc2nc1O)C(O)c1ccc(Cl)cc1Cl (configuration not stated)
inactive: NCI-H23 > 100 µM | SK-MEL-28 > 100 µM | IGROV-1 > 100 µM | RXF 393 > 100 µM | Malme-3M > 100 µM | HL-60 > 100 µM | HOP-62 > 100 µM | OVCAR-5 > 100 µM | SF-295 > 100 µM | KM12 > 100 µM | COLO 205 > 100 µM | SF-268 > 100 µM | UACC-62 > 100 µM | 786-0 > 100 µM | SW-620 > 100 µM | SK-MEL-5 > 100 µM | SR > 100 µM | M14 > 100 µM

COc1ccc(/C=[N+](\[O-])[C@H](COCc2ccccc2)c2ccccc2)cc1
inactive: NCI-H23 > 100 µM | SK-MEL-28 38 µM | IGROV-1 > 100 µM | RXF 393 98.9 µM | Malme-3M 42.1 µM | HL-60 25 µM | TK-10 > 100 µM | HOP-62 > 100 µM | OVCAR-5 > 100 µM | SF-295 66.8 µM | KM12 89.1 µM | COLO 205 84.3 µM | SF-268 67.5 µM | 786-0 > 100 µM | SW-620 92 µM

COc1cc(C2C(C(=O)Nc3cc(F)c(F)cc3F)=C(C)NC(C)=C2C(=O)Nc2cc(F)c(F)cc2F)ccc1O
inactive: NCI-H23 17.1 µM | SK-MEL-28 25.4 µM | IGROV-1 23.1 µM | RXF 393 10.6 µM | Malme-3M 24.7 µM | HL-60 15.7 µM | TK-10 28.3 µM | HOP-62 12.8 µM | OVCAR-5 17.4 µM | SF-295 21.3 µM | KM12 13.3 µM | COLO 205 30.9 µM | SF-268 15 µM | 786-0 26.7 µM | SW-620 37.7 µM | SK-MEL-5 18.5 µM | M14 25.2 µM

CCCCN1C(=O)C2c3[nH]c4ccccc4c3C3CCCCC3C2C1=O.CCCCN1C(=O)C2c3[nH]c4ccccc4c3[C@@H]3CCCCC3C2C1=O (configuration not stated)
inactive: NCI-H23 16 µM | SK-MEL-28 29.6 µM | IGROV-1 19.1 µM | HL-60 13.6 µM | TK-10 13.7 µM | HOP-62 6.4 µM | SF-295 7.93 µM | COLO 205 26.7 µM | SF-268 17.9 µM | UACC-62 19.1 µM | 786-0 4.41 µM | SW-620 37.8 µM | SK-MEL-5 23.6 µM | M14 13.4 µM

O=C(O)c1ccc([N+](=O)[O-])c2c(=O)c3ccccc3[nH]c12
inactive: IGROV-1 > 100 µM | RXF 393 > 100 µM | Malme-3M > 100 µM | HL-60 > 100 µM | HOP-62 > 100 µM | OVCAR-5 > 100 µM | SF-295 > 100 µM | KM12 > 100 µM | COLO 205 > 100 µM | SF-268 > 100 µM | UACC-62 > 100 µM | 786-0 > 100 µM | SW-620 > 100 µM | SK-MEL-5 > 100 µM | SR > 100 µM | M14 > 100 µM

O=c1cccccc1NCCCNc1cccccc1=O
inactive: NCI-H23 > 100 µM | IGROV-1 > 100 µM | RXF 393 > 100 µM | Malme-3M 11.9 µM | HL-60 43.2 µM | HOP-62 > 100 µM | OVCAR-5 > 100 µM | SF-295 > 100 µM | KM12 > 100 µM | COLO 205 > 100 µM | SF-268 > 100 µM | UACC-62 > 100 µM | 786-0 > 100 µM | SW-620 > 100 µM | SR > 100 µM | M14 > 100 µM

CC(=O)OC(=O)O/C=C\CCl
inactive: SK-MEL-28 > 100 µM | IGROV-1 > 100 µM | RXF 393 > 100 µM | Malme-3M > 100 µM | HL-60 29.4 µM | TK-10 > 100 µM | HOP-62 > 100 µM | KM12 > 100 µM | COLO 205 > 100 µM | SF-268 > 100 µM | UACC-62 > 100 µM | 786-0 > 100 µM | SW-620 > 100 µM | SK-MEL-5 > 100 µM | SR 42 µM | M14 > 100 µM

C/C(CC(=O)Nc1ccc(Cl)c(Cl)c1)=N/NC(=O)C[n+]1ccccc1
inactive: NCI-H23 > 100 µM | SK-MEL-28 > 100 µM | IGROV-1 > 100 µM | RXF 393 > 100 µM | Malme-3M > 100 µM | HL-60 44.4 µM | TK-10 > 100 µM | HOP-62 > 100 µM | OVCAR-5 > 100 µM | SF-295 > 100 µM | KM12 88.7 µM | COLO 205 31.8 µM | SF-268 > 100 µM | UACC-62 > 100 µM | 786-0 43.1 µM | SK-MEL-5 > 100 µM | SR 23.7 µM | M14 > 100 µM

Cc1ccc(NC(=O)CCc2nnc3s/c(=C\c4cccc([N+](=O)[O-])c4)c(=O)n23)cc1
inactive: NCI-H23 > 100 µM | SK-MEL-28 > 100 µM | IGROV-1 > 100 µM | RXF 393 > 100 µM | Malme-3M > 100 µM | TK-10 > 100 µM | HOP-62 16.7 µM | OVCAR-5 > 100 µM | SF-295 59.2 µM | KM12 > 100 µM | COLO 205 > 100 µM | SF-268 > 100 µM | UACC-62 > 100 µM | 786-0 40.4 µM | SW-620 19.3 µM | SK-MEL-5 > 100 µM | SR > 100 µM | M14 > 100 µM

Reference: ChEMBL document CHEMBL1201862, “PubChem BioAssay data set” (2004)
